Data from patent US11952364B2, “TRK inhibitors useful as anticancer drugs” (TYLIGAND BIOSCIENCE (SHANGHAI) LIMITED, priority 2018, dated 2024).

Test system: Ba/F3 ETV6-NTRK3 cells
Experiment: Proliferation of Ba/F3 ETV6-NTRK3 cells (CellTiter-Glo)
Format: cell-based
Conditions: Mus musculus, BaF3; Table 3; 72 hours
Description: Ba/F3 ETV6-NTRK3 is a stable transgenic cell line constructed by KYinno Biotechnology Co., Ltd. on mouse primary B cell Ba/F3 wherein NTRK3 is highly expressed and fused with ETV6 to form ETV6-NTRK3. • [Test method]: Promega's CellTiter-Glo® Luminescent Cell Viability Assay kit was used to evaluate the inhibitory activity of the compounds on the proliferation of Ba/F3 ETV6-NTRK3 cells. • [Instrument]: Spectramax M3 multifunctional microplate reader from Molecular Devices. • [Test materials]: Ba/F3 ETV6-NTRK3 cell line (constructed by KYinno Biotechnology Co., Ltd. (Beijing)), 96-well transparent flat-bottomed black-walled cell culture plate (Corning, cat #3603), RPMI-1640 media (GE, cat #SH30027.01), fetal bovine serum FBS (Thermo Fisher, cat #10099-141), CellTiter-Glo® Luminescent Cell Viability Assay kit (Promega, cat #G7572), PBS (Solarbio, cat #P1020), DMSO (Sigma, cat #D2650). • [Experimental procedure]: When resuscitating Ba/F3 ETV6-NTRK3 cells, the freezing tube was quickly shaken in a 37° C. water bath to melt within 1 minute. The thawed cell suspension was mixed uniformly with RPMI1640 medium containing 10% FBS, centrifuged at 1000 rpm for 5 minutes, and the supernatant discarded. 5 mL of complete medium (RPMI1640 medium with 10% FBS) was taken to resuspend the cell pellets, charged into a cell culture flask with a bottom area of 25 cm^2, and incubated in a cell incubator at 37° C., 95% humidity and 5% CO2. Cells were allowed to passage when the number of cells reached about 10^6 cells/mL. For cell passage, the old cell suspension was directly pipetted evenly, 1/5 of the cell suspension was kept, 4 mL of new complete medium was added, after pipetting evenly, the cell flask was placed in the cell incubator for further culturing. Cell plating was performed when the number of cells reached about 10^6 cells/mL again. For cell plating, 1/5 of the cell suspension was kept for further culturing as in the cell passage method, and the remaining 4/5 of the cell suspension was placed in a 15 mL centrifuge tube, detected for cell viability by Trypan blue exclusion method to ensure that cell viability was above 90%. A cell suspension with a density of 5.56×10^4 viable cells/mL was prepared with complete medium, and 90 μL of such cell suspension was added to a 96-well cell culture plate to obtain the cell density of 5000 viable cells/mL in the cell culture plate. A control group containing no cells, no compound and only complete medium (i.e. culture medium control) and a control group containing no compound but containing cells (i.e. cell control) were set. The cell plate was placed in a cell incubator overnight. The 10 mM compound stock solution in DMSO was first serially diluted with DMSO at a dilution factor of 3.16 times, to obtain 9 concentrations, and the 10th concentration was set as DMSO control without compound. Then, PBS was used to dilute the DMSO solutions of compounds of different concentrations, at a dilution factor of 100 times, so that the DMSO concentration in the compound solution of each concentration was 1%. Finally, 10 μL of each of the above solutions was added to the corresponding cell culture plate, so that the initial compound concentration was 10 μM, with the remaining concentrations being successively diluted at a dilution factor of 3.16 times, and the DMSO content in the cell culture plate was 0.1%. The cell plate was placed in a cell incubator and cultured for 72 hours. For endpoint detection, the CellTiter-Glo reagent was melted, and the cell plate was moved to room temperature to equilibrate for 30 minutes, added with 100 μL of CellTiter-Glo for each well, and shaken on an orbital shaker for 5 minutes to fully lyse the cells. The plate was kept at room temperature for 20 minutes to stabilize the luminescence signal, and the luminescence value of each well was scanned with a multi-functional microplate reader at full wavelength. • [Test samples]

Row | IC50 [nM] | Structure (SMILES)
1 | 94 | Cn1ncc2cc(Oc3ccc(NC(=O)c4ccc(C5CC5)n(-c5ccc(F)cc5)c4=O)cc3F)c(-c3cn[nH]c3)cc21 [Example 2, N-(3-fluoro-4-(1-methyl-6-(1H-pyrazol-4-yl)-1H-indazol-5-yloxy)phenyl)-1-(4-fluorophenyl)-6-cyclopropyl-2-oxo-1,2-dihydmpyridine-3-carboxamide]
2 | 684 | Cc1ccc(C(=O)Nc2ccc(Oc3cc4cnn(C)c4cc3-c3cn[nH]c3)c(F)c2)c(=O)n1-c1ccc(F)cc1 [Merestinib, reference compound]
3 | 762 | Cc1ccc(C(=O)Nc2ccc(Oc3cc4cnn(C(C)C)c4cc3-c3cn[nH]c3)c(F)c2)c(=O)n1-c1ccc(F)cc1 [Example 4, N-(3-fluoro-4-(1-isopropyl-6-(1H-pyrazol-4-yl)-1H-indazol-5-yloxy)phenyl)-1-(4-fluorophenyl)-6-methyl-2-oxo-1,2-dihydmpyridine-3-carboxamide]
4 | 663 | CCn1ncc2cc(Oc3ccc(NC(=O)c4ccc(C)n(-c5ccc(F)cc5)c4=O)cc3F)c(-c3cn[nH]c3)cc21 [Example 3, N-(3-fluoro-4-(1-ethyl-6-(1H-pyrazol-4-yl)-1H-indazol-5-yloxy)phenyl)-1-(4-fluorophenyl)-6-methyl-2-oxo-1,2-dihydmpyridine-3-carboxamide]
5 | 435 | Cn1ncc2cc(Oc3ccc(NC(=O)c4ccc(C(F)(F)F)n(-c5ccc(F)cc5)c4=O)cc3F)c(-c3cn[nH]c3)cc21 [Example 1, N-(3-fluoro-4-(1-methyl-6-(1H-pyrazol-4-yl)-1H-indazol-5-yloxy)phenyl)-1-(4-fluorophenyl)-6-trifluoromethyl-2-oxo-1,2-dihydmpyridine-3-carboxamide monomethanesulfonate]
6 | 284 | CC(C)c1ccc(C(=O)Nc2ccc(Oc3cc4cnn(C)c4cc3-c3cn[nH]c3)c(F)c2)c(=O)n1-c1ccc(F)cc1 [Example 6, N-(3-fluoro-4-(1-methyl-6-(1H-pyrazol-4-yl)-1H-indazol-5-yloxy)phenyl)-1-(4-fluorophenyl)-6-isopropyl-2-oxo-1,2-dihydropyridine-3-carboxamide]
7 | 60 | CCc1ccc(C(=O)Nc2ccc(Oc3cc4cnn(C)c4cc3-c3cn[nH]c3)c(F)c2)c(=O)n1-c1ccc(F)cc1 [Example 5, N-(3-fluoro-4-(1-methyl-6-(1H-pyrazol-4-yl)-1H-indazol-5-yloxy)phenyl)-1-(4-fluorophenyl)-6-ethyl-2-oxo-1,2-dihydropyridine-3-carboxamide]
8 | 5 | O=C(Nc1cnn2ccc(N3CCC[C@@H]3c3cc(F)ccc3F)nc12)N1CC[C@H](O)C1 [LOXO-101, Larotrectinib, reference compound]
